Results on 8 molecules are retold here after PubChem BioAssay (NCI).

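Values below derive from 48-hour exposures of cells grown in 96-well plates, with endpoints linearly interpolated between the two concentrations bracketing the appropriate inhibition level. GI50 is the concentration that inhibits growth by half. TGI: concentration producing complete growth inhibition.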 Bounds are passed on as bounds.

Assay in all cases: NCI anticancer screen, dose series, 48 h
Experiment [1] concerns CAKI-1 renal.
For experiment [2], the system named is EKVX NSCLC.
Experiment [3] deals with HCT-15 colon.
For experiment [4], the system named is IGROV1 ovarian.
Experiment [5] has as its system MOLT-4 leukemia.
Experiment [6] has as its system NCI-H23 lung.
Experiment [7] deals with PC-3 prostate.
Experiment [8] concerns SF-268 CNS.
Experiment [9] deals with U251 CNS.
Experiment [10] concerns HL-60(TB) leukemia.

For `COc1ccc(-c2cc(-c3ccc(O)cc3)nc3nc(=S)[nH]c(N)c23)cc1`, the GI50 in [1] was 27.1 µM; in experiment [2] it was 13.5 µM; in [3], 19.6 µM; in experiment [4] it was 18.6 µM; in [5], 7.01 µM; in experiment [6], 25 µM. The GI50 is 15.8 µM in experiment [7], 23.4 µM in [8] and 15.3 µM in [9]. Further, the TGI is 88.7 µM in experiment [1]; 60.7 µM in [2]; 58 µM in experiment [3]; 73.8 µM in [4]; more than 100 µM in [5]; 50.1 µM in [6]. The TGI is 43.7 µM in [7], 79.2 µM in experiment [8] and 61.1 µM in experiment [9].
In the case of `COc1cc(-c2cc(/C=C/C(=O)c3ccc4c(c3)OCO4)[nH]n2)cc(OC)c1OC`, the GI50 in experiment [1] is 5.51 µM; in experiment [3], 2.12 µM; in experiment [10], 2.17 µM; in experiment [4] it was 5 µM; in [5], 2.98 µM; in [6] it was 20.2 µM. Also, the GI50 in experiment [7] was 2.81 µM; in experiment [8], 2.97 µM; in [9] it was 2.01 µM. Also, the TGI in experiment [1] is more than 100 µM; in experiment [3], 7.19 µM; in experiment [10], 6.36 µM; in [4], 62.1 µM; in [5], 9.15 µM; in [6], more than 100 µM. In addition, the TGI in experiment [7] was 13.7 µM; in experiment [8], 14.5 µM; in experiment [9], 5.45 µM.
Regarding `O=C(N/N=C/c1coc2ccc(Cl)cc2c1=O)c1ccncc1`, the GI50 in experiment [1] was 74.1 µM; in [2] it was 44.6 µM; in experiment [3], 44.4 µM; in [4] it was 24.8 µM; in experiment [5], 21.1 µM; in experiment [6], 38.8 µM. Moreover, the GI50 in experiment [7] was 59.1 µM; in experiment [8], 89.7 µM; in experiment [9], 39.7 µM. Besides, the TGI is more than 100 µM in experiment [1]; more than 100 µM in experiment [2]; more than 100 µM in [3]; more than 100 µM in experiment [4]; 71.2 µM in [5]; more than 100 µM in [6]. Also, the TGI in experiment [7], in [8] and in experiment [9] was more than 100 µM throughout.
In the case of `Nc1ncnc2c1c(-c1cccc(OCc3ccccc3)c1)cn2C1CC(CN2CCCC2)C1` (stereo not given), the GI50 was 2.08 µM in experiment [1]; 1.47 µM in experiment [3]; 0.426 µM in experiment [10]; 2.92 µM in experiment [4]; 2.7 µM in experiment [5]; 2.91 µM in experiment [6]. The GI50 in [7] is 2.5 µM; in [8], 1.94 µM; in experiment [9], 1.51 µM. For the same molecule, the TGI came to 9.27 µM in [1]; 5.94 µM in experiment [3]; 3.03 µM in [10]; 7.5 µM in experiment [4]; 8.57 µM in experiment [5]; 16 µM in experiment [6]. In addition, the TGI was found to be 10.4 µM in experiment [7], 4.61 µM in [8] and 2.96 µM in [9].
Turning to `CCCn1cc(C2=C(c3cn(C)c4ccccc34)C(=O)NC2=O)c2ccccc21`, the GI50 in experiment [1] was 0.937 µM; in [3], 0.688 µM; in [10], 0.835 µM; in [4], 4.03 µM; in [5], 2.45 µM; in experiment [6] it was 2.67 µM. Besides, the GI50 in [7] is 1.03 µM; in experiment [8], 2.64 µM; in experiment [9], 1.17 µM. In addition, the TGI in experiment [1] is more than 23.2 µM; in experiment [3], more than 19.2 µM; in experiment [10], 3.64 µM; in experiment [4], more than 17 µM; in [5], more than 17.8 µM; in experiment [6] it was 17.8 µM. Besides, the TGI in [7] was more than 25 µM; in experiment [8], more than 16.1 µM; in experiment [9], 5.33 µM.
Turning to `COC1OCC(OS(=O)(=O)c2ccc(C)cc2)C(OC(=O)c2ccccc2)C1OC(=O)c1ccccc1` (stereo not given), the GI50 was 4.21 µM in [1]; 45.3 µM in experiment [2]; 5.3 µM in [3]; 4.08 µM in experiment [10]; 6.4 µM in [4]; more than 100 µM in experiment [6]. Also, the GI50 was 9.01 µM in [7], 9.75 µM in experiment [8] and 4.72 µM in experiment [9]. For the same molecule, the TGI in experiment [1], in experiment [2], in experiment [3], in experiment [10], in [4] and in experiment [6] was more than 100 µM in each case. Moreover, the TGI in [7], in [8] and in experiment [9] was more than 100 µM each time.
Regarding `CSC(=S)N/N=C/c1ccccc1`, the TGI in [1] is 89.4 µM; in [2] it was more than 100 µM; in [3], more than 100 µM; in experiment [10], more than 100 µM; in [4], more than 100 µM; in experiment [6], more than 100 µM. Also, the TGI in experiment [7], in experiment [8] and in [9] was more than 100 µM each time.
As to `COc1ccc(S(=O)(=O)N2CCN(C(=O)OCc3ccccc3)CC2C(=O)NO)cc1` (stereo not given), the GI50 in [1] was 10.1 µM; in experiment [2] it was 6.18 µM; in [3] it was more than 25 µM; in experiment [4] it was 4.09 µM; in experiment [5], 5.37 µM; in experiment [6], more than 25 µM. Also, the results for the GI50 in experiment [7], in experiment [8] and in experiment [9] were 17.6 µM, more than 25 µM and more than 25 µM, respectively. Further, the TGI is more than 25 µM in experiment [1]; more than 25 µM in [2]; more than 25 µM in [3]; more than 25 µM in experiment [4]; 18.4 µM in experiment [5]; more than 25 µM in experiment [6]. Also, the TGI in [7], in experiment [8] and in [9] was more than 25 µM each time.
